Experimental data published in patent US12065404B2, “C4-carboxylic acid-substituted tryptamine derivatives and methods of using” (priority 2022, dated 2024).
Values joined by “and” are separate entries in the source; they are usually repeats but may differ in a detail not shown here. Equal values may be shown once. “Also recorded” adds a separate entry of the source.

Columns and labels:
GABAA = GABAA (Homo sapiens, UniProt P14867+P18507+P47870); assay type: cell-based; conditions: ion channel
[1] = target: T1, neuronal 5-HT2A receptor (5-HT2AR) (Mus musculus, UniProt P35363); test: Drug-induced Head Twitch Response (HTR) in mice; assay type: in vivo, C57BL/6-Elite mice; conditions: 1 mg/kg i.p., 15-to-30-minute window post-drug, relative to vehicle-treated control mice
T1 construct: HTR was measured in mice treated with a control and test compounds; tissue Charles River; host or cells: live C57BL/6-Elite mice (neuronal receptor)

[2] = Mouse pharmacokinetic (PK) study, parent compound and psilocin metabolite in plasma; assay type: in vivo, C57Bl/6 mice; conditions: for bioavailability: male, C57Bl/6, mouse, plasma, po
Text: Briefly, the procedure was as follows. […] 19, 2022.

5-HT1A receptor = target: T2, 5-HT1A receptor (Homo sapiens, UniProt P08908); test: cAMP-Glo assay of 5-HT1A receptor modulation, +5-HT1A (CHO-K1/5-HT1A/Ga15) vs -5-HT1A (CHO-K1/Ga15) cells; assay type: cell-based; design: dose or concentration left out as unconfirmed; conditions: +5-HT1A vs -5-HT1A cell cultures stimulated with forskolin, increasing ligand concentrations
T2 construct: host or cells: CHO-K1 (co-expressing Ga15)
T2 sequence (P08908 1-422): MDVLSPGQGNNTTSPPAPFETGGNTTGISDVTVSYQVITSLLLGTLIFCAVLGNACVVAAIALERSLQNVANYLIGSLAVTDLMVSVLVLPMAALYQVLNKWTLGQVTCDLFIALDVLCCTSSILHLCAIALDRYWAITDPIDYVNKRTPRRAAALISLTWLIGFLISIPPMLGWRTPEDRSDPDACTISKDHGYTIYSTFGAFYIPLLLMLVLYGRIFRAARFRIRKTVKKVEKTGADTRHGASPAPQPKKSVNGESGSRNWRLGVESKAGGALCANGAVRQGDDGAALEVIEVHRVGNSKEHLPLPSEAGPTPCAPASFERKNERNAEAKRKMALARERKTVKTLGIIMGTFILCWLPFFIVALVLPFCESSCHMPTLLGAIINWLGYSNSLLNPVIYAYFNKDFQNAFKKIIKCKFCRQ

[3] = administered compound itself in plasma, 1 mg/kg i.v., individual animals, 1 mg/kg
[4] = administered compound itself in plasma, 1 mg/kg i.v., mean ± SD
[5] = administered compound itself in plasma, 1 mg/kg oral, individual animals, 1 mg/kg
[6] = administered compound itself in plasma, 1 mg/kg oral, mean ± SD
[7] = administered compound itself in plasma, 3 mg/kg oral, individual animals, 3 mg/kg
[8] = administered compound itself in plasma, 3 mg/kg oral, mean ± SD
[9] = plasma C(XX), 3 mg/kg p.o. C(XX), mean
[10] = plasma C(XX), 10 mg/kg oral C(XX), animals M58-M60, 10 mg/kg
[11] = plasma C(XX), 10 mg/kg oral C(XX), mean (n = 2)
[12] = plasma C(XX), 10 mg/kg oral C(XX), mean ± SD
[13] = plasma C(XX), 10 mg/kg oral C(XX), mean ± SD, 10 mg/kg

GABAA, sequence (P14867 28-456): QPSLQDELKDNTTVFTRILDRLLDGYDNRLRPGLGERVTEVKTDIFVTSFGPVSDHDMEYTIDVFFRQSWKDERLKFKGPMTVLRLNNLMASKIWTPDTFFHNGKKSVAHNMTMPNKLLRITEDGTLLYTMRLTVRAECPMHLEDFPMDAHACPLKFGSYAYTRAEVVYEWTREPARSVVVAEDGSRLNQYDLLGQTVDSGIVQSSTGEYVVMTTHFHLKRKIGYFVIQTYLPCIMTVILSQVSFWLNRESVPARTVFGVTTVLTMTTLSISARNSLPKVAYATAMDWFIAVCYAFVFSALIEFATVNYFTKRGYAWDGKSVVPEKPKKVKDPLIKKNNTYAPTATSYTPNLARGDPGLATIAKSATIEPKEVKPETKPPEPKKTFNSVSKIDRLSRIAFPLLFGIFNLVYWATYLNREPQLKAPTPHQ
GABAA, sequence (P47870 26-512): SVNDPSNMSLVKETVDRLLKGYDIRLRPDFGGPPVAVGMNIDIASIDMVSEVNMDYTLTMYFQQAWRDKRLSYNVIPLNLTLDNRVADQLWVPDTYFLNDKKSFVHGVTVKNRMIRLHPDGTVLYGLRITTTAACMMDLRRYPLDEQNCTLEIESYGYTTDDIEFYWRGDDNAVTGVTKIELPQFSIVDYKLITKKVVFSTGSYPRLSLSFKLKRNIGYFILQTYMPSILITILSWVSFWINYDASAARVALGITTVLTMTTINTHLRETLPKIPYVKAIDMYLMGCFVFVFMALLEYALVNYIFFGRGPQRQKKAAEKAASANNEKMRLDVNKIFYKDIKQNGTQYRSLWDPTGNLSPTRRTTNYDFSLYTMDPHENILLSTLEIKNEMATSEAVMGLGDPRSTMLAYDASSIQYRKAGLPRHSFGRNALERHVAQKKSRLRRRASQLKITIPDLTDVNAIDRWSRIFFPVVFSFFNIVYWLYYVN
GABAA, sequence (P18507 40-475): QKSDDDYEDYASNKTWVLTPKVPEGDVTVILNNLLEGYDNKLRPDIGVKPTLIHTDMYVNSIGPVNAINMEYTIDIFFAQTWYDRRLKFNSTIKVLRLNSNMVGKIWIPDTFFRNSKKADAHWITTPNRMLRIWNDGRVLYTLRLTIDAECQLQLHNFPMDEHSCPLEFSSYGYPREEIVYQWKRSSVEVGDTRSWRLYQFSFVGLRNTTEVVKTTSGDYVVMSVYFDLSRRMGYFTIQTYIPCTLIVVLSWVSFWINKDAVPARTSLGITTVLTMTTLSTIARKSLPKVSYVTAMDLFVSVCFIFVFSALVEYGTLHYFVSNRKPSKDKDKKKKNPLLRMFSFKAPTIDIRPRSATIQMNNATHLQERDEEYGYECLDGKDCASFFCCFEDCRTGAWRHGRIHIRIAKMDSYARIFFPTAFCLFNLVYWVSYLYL
T1 sequence (P35363 whole entry): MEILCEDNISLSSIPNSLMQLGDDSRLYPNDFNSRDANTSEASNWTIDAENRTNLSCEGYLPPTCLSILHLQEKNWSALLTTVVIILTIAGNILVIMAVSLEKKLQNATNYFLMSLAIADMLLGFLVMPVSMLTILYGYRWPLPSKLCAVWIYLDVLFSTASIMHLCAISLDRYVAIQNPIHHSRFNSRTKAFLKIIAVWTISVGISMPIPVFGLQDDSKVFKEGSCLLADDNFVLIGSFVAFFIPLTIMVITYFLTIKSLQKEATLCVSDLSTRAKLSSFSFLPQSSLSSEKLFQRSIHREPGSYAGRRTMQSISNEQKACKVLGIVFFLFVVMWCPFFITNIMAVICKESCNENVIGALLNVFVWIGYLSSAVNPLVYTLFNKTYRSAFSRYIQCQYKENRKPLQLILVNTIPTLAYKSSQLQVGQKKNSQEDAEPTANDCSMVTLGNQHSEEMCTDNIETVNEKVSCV

## CN(C)CCc1c[nH]c2cccc(OC(=O)c3cccc4c3OCCO4)c12 [C(XX)]
GABAA; blocker (BL)
  IC50: > 100 µM
GABAA; opener (OP)
  EC50: > 100 µM
[1]
  Incidences of Head Twitch Response (HTR): Elevated incidences of HTR
[2]; 1 mg/kg i.v. C(XX), 5 min, individual animals
  Plasma concentration of C(XX): 152 ng/mL and 105 ng/mL
[2]; 1 mg/kg i.v. C(XX), 0.25 h, individual animals
  Plasma concentration of C(XX): 84.7 ng/mL and 60.3 ng/mL
[2]; 1 mg/kg i.v. C(XX), 0.5 h, individual animals
  Plasma concentration of C(XX): 37.9 ng/mL and 32.1 ng/mL
[2]; 1 mg/kg i.v. C(XX), 1 h, individual animals
  Plasma concentration of C(XX): 8.13 ng/mL and 8.22 ng/mL
[2]; 1 mg/kg i.v. C(XX), 2 h, individual animals
  Plasma concentration of C(XX): 1.03 ng/mL and 1.14 ng/mL
[2]; 1 mg/kg i.v. C(XX), 4 h, individual animals
  Plasma concentration of C(XX): 0.137 ng/mL and 0.148 ng/mL
[2]; 1 mg/kg i.v. C(XX), 6 h, individual animals
  Plasma concentration of C(XX): BLQ (BLQ denotes below the lower limit of quantitation (0.25 ng/mL).)
[2]; 1 mg/kg i.v. C(XX), 8 h, animals M49-M51
  Plasma concentration of psilocin: BLQ (BLQ denotes below the lower limit of quantitation (0.5 ng/mL).)
[2]; 1 mg/kg i.v. C(XX), 8 h, individual animals
  Plasma concentration of C(XX): BLQ (BLQ denotes below the lower limit of quantitation (0.25 ng/mL).) and No (2×)
[2]; 1 mg/kg oral C(XX), 0.25 h, individual animals
  Plasma concentration of C(XX): 0.459 ng/mL and 0.648 ng/mL
[2]; 1 mg/kg oral C(XX), 0.5 h, individual animals
  Plasma concentration of C(XX): 0.509 ng/mL and 0.648 ng/mL
[2]; 1 mg/kg oral C(XX), 1 h, individual animals
  Plasma concentration of C(XX): 0.286 ng/mL and 0.199 ng/mL
[2]; 1 mg/kg oral C(XX), 2 h, individual animals
  Plasma concentration of C(XX): BLQ (BLQ denotes below the lower limit of quantitation (0.25 ng/mL).)
[2]; 1 mg/kg oral C(XX), 4 h, individual animals
  Plasma concentration of C(XX): BLQ (BLQ denotes below the lower limit of quantitation (0.25 ng/mL).)
[2]; 1 mg/kg oral C(XX), 6 h, individual animals
  Plasma concentration of C(XX): No Peak; also recorded: BLQ (BLQ denotes below the lower limit of quantitation (0.25 ng/mL).)
[2]; 1 mg/kg oral C(XX), 8 h, individual animals
  Plasma concentration of C(XX): No Peak; also recorded: BLQ (BLQ denotes below the lower limit of quantitation (0.25 ng/mL).)
[2]; 1 mg/kg oral C(XX), 24 h, animals M52-M54
  Plasma concentration of psilocin: BLQ (BLQ denotes below the lower limit of quantitation (0.5 ng/mL).)
[2]; 1 mg/kg oral C(XX), 24 h, individual animals
  Plasma concentration of C(XX): No Peak
[2]; 3 mg/kg oral C(XX), 0.25 h, individual animals
  Plasma concentration of C(XX): 1.72 ng/mL and 1.93 ng/mL
[2]; 3 mg/kg oral C(XX), 0.5 h, individual animals
  Plasma concentration of C(XX): 1.13 ng/mL and 1.43 ng/mL
[2]; 3 mg/kg oral C(XX), 1 h, individual animals
  Plasma concentration of C(XX): 0.752 ng/mL and 0.535 ng/mL
[2]; 3 mg/kg oral C(XX), 2 h, individual animals
  Plasma concentration of C(XX): 0.244 ng/mL and 0.156 ng/mL
[2]; 3 mg/kg oral C(XX), 4 h, individual animals
  Plasma concentration of C(XX): No Peak; also recorded: BLQ (BLQ denotes below the lower limit of quantitation (0.25 ng/mL).)
[2]; 3 mg/kg oral C(XX), 6 h, individual animals
  Plasma concentration of C(XX): No Peak; also recorded: BLQ (BLQ denotes below the lower limit of quantitation (0.25 ng/mL).)
[2]; 3 mg/kg oral C(XX), 8 h, individual animals
  Plasma concentration of C(XX): No Peak; also recorded: BLQ (BLQ denotes below the lower limit of quantitation (0.25 ng/mL).)
[2]; 3 mg/kg oral C(XX), 24 h, animals M55-M57
  Plasma concentration of psilocin: BLQ (BLQ denotes below the lower limit of quantitation (0.5 ng/mL).)
[2]; 3 mg/kg oral C(XX), 24 h, individual animals
  Plasma concentration of C(XX): No Peak
[2]; 3 mg/kg oral, no footnote on basis (Table 36B), individual animals
  F(%): 1.08% and 0.962%
[2]; 10 mg/kg oral C(XX), 0.25 h, individual animals
  Plasma concentration of C(XX): 2.99 ng/mL and 9.12 ng/mL and 10.3 ng/mL
[2]; 10 mg/kg oral C(XX), 0.5 h, individual animals
  Plasma concentration of C(XX): 2.79 ng/mL and 3.87 ng/mL and 5.79 ng/mL
[2]; 10 mg/kg oral C(XX), 1 h, individual animals
  Plasma concentration of C(XX): 1.69 ng/mL and 2.74 ng/mL
[2]; 10 mg/kg oral C(XX), 2 h, individual animals
  Plasma concentration of C(XX): 0.707 ng/mL and 0.533 ng/mL and 1.08 ng/mL
[2]; 10 mg/kg oral C(XX), 4 h, individual animals
  Plasma concentration of C(XX): BLQ (BLQ denotes below the lower limit of quantitation (0.25 ng/mL).) and 0.302 ng/mL
[2]; 10 mg/kg oral C(XX), 6 h, individual animals
  Plasma concentration of C(XX): 0.524 ng/mL and BLQ (BLQ denotes below the lower limit of quantitation (0.25 ng/mL).) and 0.196 ng/mL
[2]; 10 mg/kg oral C(XX), 8 h, individual animals
  Plasma concentration of C(XX): BLQ (BLQ denotes below the lower limit of quantitation (0.25 ng/mL).) and 0.185 ng/mL
[2]; 10 mg/kg oral C(XX), 24 h, animals M58-M60
  Plasma concentration of psilocin: BLQ (BLQ denotes below the lower limit of quantitation (0.5 ng/mL).)
[2]; 10 mg/kg oral C(XX), 24 h, individual animals
  Plasma concentration of C(XX): No Peak
[2]; [3]
  AUC0-inf: 62.5 ng·h/mL and 48.1 ng·h/mL
  AUC0-inf/Dose: 48.3 kg·ng·h/mL/mg and 62.5 kg·ng·h/mL/mg and 48.1 kg·ng·h/mL/mg
  AUC0-tlast: 62.4 ng·h/mL and 48.0 ng·h/mL
  AUC0-tlast/Dose: 48.1 kg·ng·h/mL/mg and 62.4 kg·ng·h/mL/mg and 48.0 kg·ng·h/mL/mg
  Apparent t1/2: 31.7 min and 32.2 min
  C0: 204 ng/mL and 139 ng/mL
  CL: 266.52 mL/min/kg and 346.28 mL/min/kg
  MRT0-inf: 22 min and 25.7 min
  Vss: 5.874 L/kg and 8.913 L/kg
[2]; [4]
  AUC0-inf/Dose: 53.0 ± 8.26 kg·ng·h/mL/mg
  AUC0-tlast/Dose: 52.8 ± 8.30 kg·ng·h/mL/mg
  MRT0-inf: 24.7 ± 2.27 min
[2]; [5]
  Cmax: 0.509 ng/mL and 0.648 ng/mL
  Cmax/Dose: 0.702 kg·ng/mL/mg and 0.509 kg·ng/mL/mg and 0.648 kg·ng/mL/mg
  tmax: 15 min
[2]; [6]
  Cmax: 0.620 ± 0.0996 ng/mL
  Cmax/Dose: 0.620 ± 0.0996 kg·ng/mL/mg
[2]; [7]
  AUC0-inf: 1.72 ng·h/mL and 1.53 ng·h/mL
  AUC0-inf/Dose: 0.433 kg·ng·h/mL/mg and 0.572 kg·ng·h/mL/mg and 0.510 kg·ng·h/mL/mg
  AUC0-tlast: 1.48 ng·h/mL and 1.42 ng·h/mL
  AUC0-tlast/Dose: 0.406 kg·ng·h/mL/mg and 0.494 kg·ng·h/mL/mg and 0.474 kg·ng·h/mL/mg
  Apparent t1/2: 40.1 min and 28.9 min
  Cmax: 1.72 ng/mL and 1.93 ng/mL
  Cmax/Dose: 0.497 kg·ng/mL/mg and 0.573 kg·ng/mL/mg and 0.643 kg·ng/mL/mg
  MRT0-inf: 64.8 min and 49.4 min
[2]; [8]
  AUC0-inf: 1.51 ± 0.210 ng·h/mL
  AUC0-inf/Dose: 0.505 ± 0.0700 kg·ng·h/mL/mg
  AUC0-tlast: 1.37 ± 0.137 ng·h/mL
  AUC0-tlast/Dose: 0.458 ± 0.0457 kg·ng·h/mL/mg
  Cmax: 1.71 ± 0.220 ng/mL
  Cmax/Dose: 0.571 ± 0.0734 kg·ng/mL/mg
[2]; 3 mg/kg, 3 mg/kg oral, no footnote on basis (Table 36B), individual animals
  bioavailability: 0.816%
[2]; 3 mg/kg, 3 mg/kg oral, no footnote on basis (Table 36B), mean ± SD
  bioavailability: 0.953 ± 0.132%
[2]; plasma C(XX), 1 mg/kg i.v. C(XX), mean
  AUC0-tlast/Dose: 52.8 kg·ng·h/mL/mg
[2]; plasma C(XX), 1 mg/kg p.o. C(XX), mean
  Cmax/Dose: 0.620 kg·ng/mL/mg
[2]; [9]
  AUC0-tlast/Dose: 0.458 kg·ng·h/mL/mg
  Cmax/Dose: 0.571 kg·ng/mL/mg
  F: 0.953%
[2]; plasma C(XX), 10 mg/kg oral C(XX), animals M58-M60
  tmax: 15 min
[2]; [10]
  AUC0-inf: 5.40 ng·h/mL and 10.7 ng·h/mL
  AUC0-tlast: 5.65 ng·h/mL and 4.99 ng·h/mL and 9.16 ng·h/mL
  AUC0-tlast/Dose: 0.565 kg·ng·h/mL/mg and 0.499 kg·ng·h/mL/mg and 0.916 kg·ng·h/mL/mg
[2]; plasma C(XX), 10 mg/kg oral C(XX), animals M58-M60, AUC0-tlast used, 10 mg/kg
  F: 1.07% and 0.941% and 1.73%
[2]; [11]
  AUC0-inf: 8.03 ng·h/mL
  Apparent t1/2: 186 min
  MRT0-inf: 131 min
[2]; [12]
  AUC0-tlast: 6.60 ± 2.24 ng·h/mL
  Cmax: 7.47 ± 3.92 ng/mL
  tmax: 15 ± 0 min
[2]; [13]
  AUC0-tlast/Dose: 0.660 ± 0.224 kg·ng·h/mL/mg and 0.660 kg·ng·h/mL/mg
  Cmax/Dose: 0.747 ± 0.392 kg·ng/mL/mg and 0.747 kg·ng/mL/mg
[2]; plasma C(XX), 10 mg/kg oral C(XX), mean ± SD, AUC0-tlast used, 10 mg/kg
  F: 1.24 ± 0.423% and 1.24%
5-HT1A receptor
  5-HT1A receptor modulation (reduction of cAMP levels): significant receptor modulation
